Measurements: publication doi:10.1101/2025.08.06.669005v1 (bioRxiv, 2025)
Starred links: 1 amine or outer side, 2 acyl side, 3 side chain; linkers in the order of their positions; H or OH if unused. Positions of bridges follow the written chain, without caps; N, C: chain ends. Non-standard residues stand in square brackets, D forms with d. Residues, ends and D or L forms follow the SMILES beside them. Chains are numbered I, II in the order given. X1 = O=C(O)C[C@@H](C(=O)[*:2])N(c1ccc([N+](=O)[O-])c2nonc12)[*:1]; Nle = CCCC[C@H](N)C(=O)O; Aib = CC(C)(N)C(=O)O

Columns and labels:
MSC-sEVs = assay: sEV binding of 2 in solution in the presence of heparin; conditions: heparin 100 or 500 µg/mL; n = 3
ζ-potential measurement = assay type: physicochemical; conditions: non- and DiD-labeled MSC-sEVs; Zetasizer Nano ZS, 25 °C; n = 5
cancer cells = assay: sEV drug-loading system with a hydrophobic compound; assay type: cell-based; conditions: compound loaded onto sEVs; data not shown
sEVs = conditions: previous data; cited from earlier work
EVs = conditions: placed in cultured media without separation steps; cited from earlier work
HeLa cells [1] = assay: Membrane perturbation assay; assay type: cell-based; conditions: PI 3.5 µM, 30 min, 37 °C, CLSM, n = 37–65 cells
PANC-1 cells [2] = assay: Membrane perturbation assay; assay type: cell-based; conditions: PI 3.5 µM, 30 min, 37 °C, CLSM, n = 28–58 cells
[3] = test system: sEV-mimicking liposomes (POPC:cholesterol:POPS = 75:15:10 mol%); assay: Peptide binding to sEV-mimicking liposomes; conditions: ratio of Kd values for sEV-mimicking liposomes
HeLa cells [4] = assay: Cellular uptake by CLSM; assay type: cell-based; conditions: 2 at 1 µM alone, 37 °C, more than 1 h
PANC-1 cells [5] = assay: Cellular uptake by CLSM; assay type: cell-based; conditions: 2 at 1 µM alone, 37 °C, more than 1 h

Compound	ratio of the dead cells stained by PI (HeLa cells [1])	ratio of the dead cells stained by PI (PANC-1 cells [2])	other results
Heparin			fluorescence intensity of NBD of 2 in the presence of MSC-sEVs in solution (MSC-sEVs): did not influence
DKBLLKXLNKBTDBLSKX-GSGS-C-NH2 (disulfide) [2′]			change of ζ-potential of sEVs in the presence of the peptide (ζ-potential measurement): slight increase in ζ-potential
CC[C@@]1(O)C(=O)OCc2c1cc1n(c2=O)Cc2cc3ccccc3nc2-1 [camptothecin]			performance of the sEV drug-loading system (cancer cells): did not work effectively
CCCC[C@H](NC(=O)[C@H](CCCCN)NC(=O)[C@H](CO)NC(=O)[C@H](CC(C)C)NC(=O)C(C)(C)NC(=O)[C@H](CC(=O)O)NC(=O)[C@@H](NC(=O)C(C)(C)NC(=O)[C@H](CCCCN)NC(=O)[C@H](CC(N)=O)NC(=O)[C@H](CC(C)C)NC(=O)[C@H](CCCC)NC(=O)[C@H](CCCCN)NC(=O)[C@H](CC(C)C)NC(=O)[C@H](CC(C)C)NC(=O)C(C)(C)NC(=O)[C@H](CCCCN)NC(=O)[C@H](CC(=O)O)Nc1ccc([N+](=O)[O-])c2nonc12)[C@@H](C)O)C(=O)NCC(=O)N[C@@H](CO)C(=O)NCC(=O)N[C@@H](CO)C(=O)N[C@@H](CCCCN)C(N)=O [Peptide 1] (HELM PEPTIDE1{[O=C(O)C[C@H](Nc1ccc([N+](=O)[O-])c2nonc12)C(=O)[*:2]].K.[Aib].L.L.K.[Nle].L.N.K.[Aib].T.D.[Aib].L.S.K.[Nle].G.S.G.S.K.[am]}$$$$V2.0)			amount of peptide bound at the plateau level (sEVs): 1,361 peptides/vesicle; time to selective binding to EVs (EVs): ≤ 5 min
biotin-DKBLLKXLNKBTDBLSKX-GSGS-C-NH2 | biotin-DKBLLKXLNKBTDBLSKX-GSGS-C-NH2 (disulfide) [Peptide 8]	0.0%	1.9%	
I: H-[X1]K[Aib]LLK[Nle]LNK[Aib]TD[Aib]LSK[Nle]GSGSC-NH2 / II: H-[X1]K[Aib]LLK[Nle]LNK[Aib]TD[Aib]LSK[Nle]GSGSC-NH2 (disulfide I:23-II:23) [Peptide 2]			affinity relative to that of 1 [3]: 15.7 fold; NBD signals in cells in the absence of DiD-MSC-sEVs (uptake of peptide alone) (HeLa cells [4]): negligible; NBD signals in cells in the absence of DiD-MSC-sEVs (uptake of peptide alone) (PANC-1 cells [5]): negligible
biotin-IWIAQELRRIGDEFNZYYAZR-NH2 (sidechain bridge or staple) [Peptide 10]	4.5%	7.1%	
CO [MeOH]	96.5%	97.3%	
biotin-LSQETFZ’DLWKLLZEN-NH2 (sidechain bridge or staple) [Peptide 9]	6.5%	3.3%	
